From ChEMBL document CHEMBL1201862, “PubChem BioAssay data set” (2004)
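Following 48 hours of exposure in 96-well plates, responses at five concentrations were used to interpolate endpoints linearly. Here, GI50 denotes the concentration required for 50% inhibition of growth.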 The source made the active and inactive calls. Cut-off read from the data, not from the text of the source: active = GI50 up to about 1.1 µM and inactive = higher.

What was measured:
Experiment in all cases: DTP human tumour cell line panel, 48 h
786-0 = test system: 786-0
A498 = test system: A498
ACHN = test system: ACHN
BT-549 = test system: BT-549
CAKI-1 = test system: CAKI-1
DU-145 = test system: DU-145
EKVX = test system: EKVX
HCT-116 = test system: HCT-116
LOX IMVI = test system: LOX IMVI
MDA-N = test system: MDA-N
MOLT-4 = test system: MOLT-4
NCI-H226 = test system: NCI-H226
OVCAR-5 = test system: OVCAR-5
SF-539 = test system: SF-539
SNB-19 = test system: SNB-19
SR = test system: SR
SW-620 = test system: SW-620
UACC-62 = test system: UACC-62
NCI-H522 = test system: NCI-H522
SN12C = test system: SN12C

Measured: GI50

O=C1Nc2ccccc2/C1=N/NC(=O)C(O)(c1ccccc1)c1ccccc1
inactive: 786-0 35.4 µM | A498 18.3 µM | ACHN 29.4 µM | BT-549 14.1 µM | CAKI-1 31.7 µM | DU-145 25.1 µM | EKVX 30.5 µM | HCT-116 22.9 µM | LOX IMVI 16.7 µM | MDA-N 16.9 µM | MOLT-4 15.2 µM | NCI-H226 20.6 µM | OVCAR-5 17.2 µM | SF-539 15.8 µM | SNB-19 16.7 µM | SR 21.2 µM | SW-620 17.1 µM | UACC-62 15.8 µM

Oc1nc2c(c(-c3ccc(F)cc3)n1)COC/C2=C\c1ccc(F)cc1
inactive: 786-0 > 100 µM | A498 > 100 µM | ACHN > 100 µM | BT-549 > 100 µM | CAKI-1 > 100 µM | DU-145 > 100 µM | EKVX > 100 µM | HCT-116 > 100 µM | LOX IMVI > 100 µM | MDA-N > 100 µM | MOLT-4 > 100 µM | NCI-H226 > 100 µM | NCI-H522 > 100 µM | OVCAR-5 > 100 µM | SF-539 > 100 µM | SN12C > 100 µM | SNB-19 > 100 µM | SR > 100 µM | SW-620 > 100 µM | UACC-62 > 100 µM

COc1ccc2c(c1)-c1c(c3cc(OC)ccc3n1CCCN(C)C)CC2
inactive: 786-0 9.04 µM | A498 13.4 µM | ACHN 14.3 µM | BT-549 15.5 µM | CAKI-1 12.4 µM | DU-145 16.2 µM | EKVX 13.2 µM | HCT-116 5.2 µM | LOX IMVI 4.06 µM | MDA-N 4.79 µM | MOLT-4 5.93 µM | NCI-H226 1.84 µM | NCI-H522 9.91 µM | OVCAR-5 13.8 µM | SN12C 12 µM | SNB-19 14.6 µM | SR 5.18 µM | SW-620 11.1 µM | UACC-62 6.98 µM

O=C(O)COc1cc(-c2ccccc2)nc2cc(F)ccc12
inactive: 786-0 > 100 µM | A498 > 100 µM | ACHN > 100 µM | BT-549 > 100 µM | CAKI-1 > 100 µM | DU-145 > 100 µM | EKVX > 100 µM | HCT-116 > 100 µM | LOX IMVI > 100 µM | MDA-N > 100 µM | MOLT-4 > 100 µM | NCI-H226 > 100 µM | NCI-H522 > 100 µM | OVCAR-5 > 100 µM | SF-539 > 100 µM | SN12C > 100 µM | SNB-19 > 100 µM | SR > 100 µM | SW-620 > 100 µM | UACC-62 > 100 µM

Cc1nc2cc([N+](=O)[O-])ccc2c(NCCCN(C)C)c1C
inactive: 786-0 10.4 µM | A498 14.9 µM | ACHN 20 µM | BT-549 11.8 µM | CAKI-1 20.3 µM | DU-145 21.7 µM | HCT-116 4.68 µM | LOX IMVI 11 µM | MDA-N 14.8 µM | MOLT-4 1.91 µM | NCI-H226 5.08 µM | NCI-H522 3.61 µM | OVCAR-5 13.2 µM | SF-539 13.7 µM | SN12C 11.4 µM | SR 4.45 µM | SW-620 5.3 µM | UACC-62 15.6 µM
